From the CheMixHub viscosity set
± gives the uncertainty stated by the source.

Experiment: xn = mol fraction of the nth substance listed

O=C1CCCO1 + COC(=O)OC
viscosity [mPa·s]
Settings	293.15 K	298.15 K	303.15 K	308.15 K	313.15 K	318.15 K	323.15 K
101 kPa, x2 = 0.1013	1.635 ± 0.027	1.52 ± 0.025	1.413 ± 0.023	1.316 ± 0.022	1.231 ± 0.021	1.154 ± 0.02	1.083 ± 0.019
101 kPa, x2 = 0.2013	1.437 ± 0.024	1.331 ± 0.022	1.237 ± 0.021	1.154 ± 0.02	1.08 ± 0.019	1.013 ± 0.018	0.953 ± 0.017
101 kPa, x2 = 0.3001	1.277 ± 0.021	1.186 ± 0.02	1.104 ± 0.019	1.033 ± 0.018	0.968 ± 0.018	0.91 ± 0.017	0.857 ± 0.016
101 kPa, x2 = 0.4006	1.138 ± 0.02	1.058 ± 0.019	0.987 ± 0.018	0.923 ± 0.017	0.867 ± 0.016	0.816 ± 0.016	0.77 ± 0.015
101 kPa, x2 = 0.5	1.018 ± 0.018	0.95 ± 0.017	0.889 ± 0.017	0.836 ± 0.016	0.786 ± 0.015	0.742 ± 0.015	0.701 ± 0.014
101 kPa, x2 = 0.5986	0.918 ± 0.017	0.856 ± 0.016	0.802 ± 0.015	0.753 ± 0.015	0.709 ± 0.014	0.669 ± 0.014	0.634 ± 0.014
101 kPa, x2 = 0.6999	0.83 ± 0.016	0.776 ± 0.015	0.728 ± 0.015	0.685 ± 0.014	0.647 ± 0.014	0.612 ± 0.013	0.58 ± 0.013
101 kPa, x2 = 0.7989	0.75 ± 0.015	0.702 ± 0.014	0.659 ± 0.014	0.62 ± 0.014	0.585 ± 0.013	0.553 ± 0.013	0.524 ± 0.013
101 kPa, x2 = 0.8995	0.685 ± 0.014	0.644 ± 0.014	0.605 ± 0.013	0.57 ± 0.013	0.538 ± 0.013	0.51 ± 0.013	0.483 ± 0.012
101.3 kPa, x2 = 0.1282	–	1.22 ± 0.24	–	–	–	–	–
101.3 kPa, x2 = 0.1724	–	1.14 ± 0.22	–	–	–	–	–
101.3 kPa, x2 = 0.2631	–	0.99 ± 0.2	–	–	–	–	–
101.3 kPa, x2 = 0.4545	–	0.85 ± 0.17	–	–	–	–	–
101.3 kPa, x2 = 0.5555	–	0.83 ± 0.17	–	–	–	–	–
101.3 kPa, x2 = 0.6603	–	0.76 ± 0.16	–	–	–	–	–
101.3 kPa, x2 = 0.7792	–	0.78 ± 0.16	–	–	–	–	–
101.3 kPa, x2 = 0.8823	–	0.67 ± 0.14	–	–	–	–	–

COc1ccccc1O + Cc1ccccc1
303.15 K, 101 kPa
Settings	viscosity [mPa·s]
x2 = 0.1	3.17 ± 0.08
x2 = 0.2	2.47 ± 0.07
x2 = 0.3	1.83 ± 0.05
x2 = 0.4	1.5 ± 0.04
x2 = 0.5	1.2 ± 0.03
x2 = 0.6	0.981 ± 0.026
x2 = 0.7	0.815 ± 0.022
x2 = 0.8	0.7 ± 0.019
x2 = 0.9	0.599 ± 0.016

C[N+](C)(C)CC(=O)[O-] + O=C1O[C@H]([C@@H](O)CO)C(O)=C1O
Settings	viscosity [mPa·s]
298.15 K, 101.33 kPa, x2 = 0.5	721.2

C=CC[P+](c1ccccc1)(c1ccccc1)c1ccccc1.[Br-] + OCCOCCOCCO
viscosity [mPa·s], 100 kPa
Settings	293.15 K	298.15 K	303.15 K	308.15 K	313.15 K	318.15 K	323.15 K
x1 = 0.05879	76.63 ± 2.9	57.94 ± 1.9	44.82 ± 1.5	35.26 ± 1.1	28.28 ± 0.88	22.99 ± 0.7	18.97 ± 0.56
x1 = 0.0909	95.29 ± 5.9	71.69 ± 4	54.83 ± 2.8	42.76 ± 2.1	33.94 ± 1.6	27.41 ± 1.2	22.42 ± 0.93
x1 = 0.2	233.7 ± 14	166.5 ± 8.3	121.6 ± 5.2	90.91 ± 3.3	69.36 ± 2.3	53.99 ± 1.6	42.73 ± 1.3

C1COCCO1 + CC(C)O
viscosity [mPa·s]
Settings	298.15 K	303.15 K	308.15 K	313.15 K
101 kPa, x1 = 0.4	1.078 ± 0.026	–	–	–
101 kPa, x2 = 0.1382	–	0.9888 ± 0.017	0.9165 ± 0.016	–
101 kPa, x2 = 0.2768	–	0.9414 ± 0.016	0.8803 ± 0.015	–
101 kPa, x2 = 0.3911	–	0.9353 ± 0.015	0.8656 ± 0.014	–
101 kPa, x2 = 0.4934	–	0.9403 ± 0.015	0.8625 ± 0.014	–
101 kPa, x2 = 0.5928	–	0.9543 ± 0.015	0.8778 ± 0.014	–
101 kPa, x2 = 0.6977	–	1.014 ± 0.016	0.9221 ± 0.014	–
101 kPa, x2 = 0.7841	–	1.112 ± 0.017	1.012 ± 0.016	–
101 kPa, x2 = 0.8535	–	1.259 ± 0.019	1.128 ± 0.017	–
101 kPa, x2 = 0.929	–	1.47 ± 0.022	1.308 ± 0.02	–
101.3 kPa, x1 = 0.038	1.821 ± 0.044	1.578 ± 0.038	1.38 ± 0.034	1.218 ± 0.03
101.3 kPa, x1 = 0.1103	1.479 ± 0.036	1.312 ± 0.032	1.17 ± 0.029	1.039 ± 0.026
101.3 kPa, x1 = 0.213	1.224 ± 0.03	1.099 ± 0.027	0.9913 ± 0.025	0.8984 ± 0.023
101.3 kPa, x1 = 0.3316	1.075 ± 0.027	0.9775 ± 0.025	0.887 ± 0.023	0.8129 ± 0.021
101.3 kPa, x1 = 0.3634	1.055 ± 0.026	0.9613 ± 0.024	0.8738 ± 0.022	0.8044 ± 0.021
101.3 kPa, x1 = 0.4318	1.014 ± 0.025	0.9242 ± 0.024	0.8492 ± 0.022	0.7791 ± 0.02
101.3 kPa, x1 = 0.5184	0.9926 ± 0.025	0.91 ± 0.023	0.835 ± 0.022	0.7724 ± 0.02
101.3 kPa, x1 = 0.6312	0.9873 ± 0.025	0.9117 ± 0.023	0.837 ± 0.022	0.7769 ± 0.02
101.3 kPa, x1 = 0.6592	0.9898 ± 0.025	0.9161 ± 0.023	0.8392 ± 0.022	0.778 ± 0.02
101.3 kPa, x1 = 0.787	1.048 ± 0.026	0.9473 ± 0.024	0.8747 ± 0.023	0.8157 ± 0.021
101.3 kPa, x1 = 0.891	1.101 ± 0.028	1.01 ± 0.026	0.9326 ± 0.024	0.8715 ± 0.022
101.3 kPa, x1 = 0.935	1.131 ± 0.028	1.048 ± 0.026	0.9724 ± 0.025	0.8943 ± 0.023

BrCCBr + Cc1ccccc1C
101.33 kPa
Settings	viscosity [mPa·s]
298.15 K, x1 = 0.1292	0.7932 ± 0.0099
298.15 K, x1 = 0.261	0.8771 ± 0.011
298.15 K, x1 = 0.3856	0.9602 ± 0.012
298.15 K, x1 = 0.4919	1.032 ± 0.012
298.15 K, x1 = 0.585	1.098 ± 0.013
298.15 K, x1 = 0.6529	1.182 ± 0.014
298.15 K, x1 = 0.7597	1.263 ± 0.015
298.15 K, x1 = 0.8472	1.374 ± 0.016
298.15 K, x1 = 0.9267	1.487 ± 0.017
308.15 K, x1 = 0.1371	0.5822 ± 0.0073
308.15 K, x1 = 0.2566	0.6257 ± 0.0078
308.15 K, x1 = 0.3821	0.6992 ± 0.0086
308.15 K, x1 = 0.4845	0.7526 ± 0.0091
308.15 K, x1 = 0.5874	0.8292 ± 0.01
308.15 K, x1 = 0.6798	0.9216 ± 0.011
308.15 K, x1 = 0.7647	1.018 ± 0.012
308.15 K, x1 = 0.8499	1.154 ± 0.013
308.15 K, x1 = 0.9228	1.273 ± 0.015

CC(C)[N+](=O)[O-] + c1ccccc1
293.15 K, 101.33 kPa
Settings	viscosity [mPa·s]
x1 = 0.0983	0.631 ± 0.006
x1 = 0.2123	0.62 ± 0.006
x1 = 0.2863	0.619 ± 0.006
x1 = 0.4048	0.622 ± 0.006
x1 = 0.5002	0.631 ± 0.006
x1 = 0.5981	0.641 ± 0.007
x1 = 0.7032	0.661 ± 0.007
x1 = 0.7847	0.683 ± 0.007
x1 = 0.908	0.731 ± 0.007

CC(C)[N+](=O)[O-] + Cc1cc(C)cc(C)c1
293.15 K, 101.33 kPa
Settings	viscosity [mPa·s]
x1 = 0.0955	0.691 ± 0.007
x1 = 0.1983	0.691 ± 0.007
x1 = 0.2294	0.69 ± 0.007
x1 = 0.4005	0.691 ± 0.007
x1 = 0.5048	0.696 ± 0.007
x1 = 0.6007	0.701 ± 0.007
x1 = 0.7022	0.708 ± 0.007
x1 = 0.8014	0.717 ± 0.007
x1 = 0.898	0.738 ± 0.007

CC(=O)OCC(COC(C)=O)OC(C)=O + CCCCO
viscosity [mPa·s], 101.33 kPa
Settings	x1 = 0.1	x1 = 0.2	x1 = 0.3	x1 = 0.4	x1 = 0.5	x1 = 0.6	x1 = 0.7	x1 = 0.8	x1 = 0.9
298 K	2.4 ± 0.02	2.7 ± 0.03	3.12 ± 0.03	3.71 ± 0.04	4.5 ± 0.05	5.57 ± 0.07	6.99 ± 0.09	9.02 ± 0.13	11.93 ± 0.18
303 K	2.11 ± 0.02	2.34 ± 0.02	2.69 ± 0.03	3.17 ± 0.04	3.82 ± 0.04	4.65 ± 0.06	5.79 ± 0.07	7.34 ± 0.1	9.49 ± 0.13
308 K	1.87 ± 0.02	2.06 ± 0.02	2.36 ± 0.03	2.75 ± 0.03	3.27 ± 0.04	3.96 ± 0.05	4.86 ± 0.06	6.07 ± 0.08	7.72 ± 0.1
313 K	1.67 ± 0.02	1.83 ± 0.02	2.07 ± 0.02	2.4 ± 0.03	2.84 ± 0.03	3.41 ± 0.04	4.15 ± 0.05	5.1 ± 0.06	6.39 ± 0.08
